Measured values taken from US8003621B2, “Drug carriers” (Nitto Denko Corporation, priority 2007, dated 2011).

Tested on: red blood cell
Assay: Hemolytic assay
Design: species or system nude mice
Conditions: 0.2% TritonX-100, 100 μL/well with 10 μL of blood sample; 60 minutes at 37° C.
Protocol: Blood samples of nude mice were collected in heparinize-tubes and were centrifuged at 700×g for 10 minutes. The supernatant was discarded, and the red blood cell pellet was washed three times with cold PBS (pH 7.4) and was re-suspended in the same buffer. Solutions of the polymers and the siEGFP of different concentrations were prepared in PBS buffers and were added to the round-bottom plate at 100 μL/well. Blood sample (10 μL) was added to each well, and the plate was incubated for 60 minutes at 37° C. The release of hemoglobin was determined by photospectrometric analysis after centrifugation (700 g for 10 min). The supernatant (100 μL) from each well was transferred into flat-bottom plate. Intensity of […] at 540 nm was measured by a plate reader.

TritonX-100
hemolysis (control value): 100%
